# Data from patent publication US6358885B1, “Substituted phenylheterocyclic herbicides” (Mississippi State University, priority 1992, dated 2002).
# Legend:
# [1] = test system: blackgrass; assay: Test B preemergence/postemergence greenhouse plant response rating 0 to 10; type: in vivo, Alopecurus myosuroides; conditions: 0 to 10 scale
# Outline: (§1)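 Postemergence treatment of plants two to eighteen cm tall ran alongside preemergence treatment of planted seed, each using compound in a non-phytotoxic solvent.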
# [2] = test system: corn; assay: as above; type: in vivo, Zea mays; conditions: 0 to 10 scale
# Outline: as §1
# [3] = test system: cotton; assay: as above; type: in vivo, Gossypium hirsutum; conditions: 0 to 10 scale
# Outline: as §1
# [4] = test system: crabgrass; assay: as above; type: in vivo, Digitaria spp.; conditions: 0 to 10 scale
# Outline: as §1
# [5] = test system: rice; assay: as above; type: in vivo, Oryza sativa; conditions: 0 to 10 scale
# Outline: as §1
# [6] = test system: sorghum; assay: as above; type: in vivo, Sorghum bicolor; conditions: 0 to 10 scale
# Outline: as §1
# [7] = test system: sugar beet; assay: as above; type: in vivo, Beta vulgaris; conditions: 0 to 10 scale
# Outline: as §1
# [8] = test system: wheat; assay: as above; type: in vivo, Triticum aestivum; conditions: 0 to 10 scale
# Outline: as §1
# [9] = test system: wild oat; assay: as above; type: in vivo, Avena fatua; conditions: 0 to 10 scale
# Outline: as §1
# [10] = test system: purple nutsedge; assay: as above; type: in vivo, Cyperus rotundus; conditions: 0 to 10 scale
# Outline: as §1
# [11] = test system: cotton; assay: Test C preemergence/postemergence greenhouse plant response rating 0 to 100; type: in vivo, Gossypium hirsutum; conditions: POSTEMERGENCE; for Plant response rating, Cotton: 0 to 100 scale
# Text: (§2) The compounds evaluated in this test were formulated in a non-phytoxic solvent and applied to the soil surface before plant seedlings emerged (preemergence application), to water that covered the soil surface (flood application), and to plants that were in the one-to-four leaf stage (postemergence application). A sandy loam soil was used for the preemergence and postemergence tests, while a silt loam soil was used in the flood test. Water depth was approximately 2.5 cm for the flood test and was maintained at this level for the duration of the test. Plant species in the preemergence and postemergence tests consisted of barley (Hordeum vulgare), bedstraw (Galium aparine), blackgrass (Alopecurus myosuroides), chickweed (Stellaria media), corn (Zea mays), cotton (Gossypium hirsutum), crabgrass (Digitaria sanguinalis), downy brome (Bromus tectorum), giant foxtail (Setaria faberii), lambsquarters (Chenopodium album), morningglory (Ipomoea hederacea), pigweed ([…]), rape (Brassica napus), ryegrass (Lolium multiflorum), sorghum (Sorghum bicolor), soybean (Glycine max), speedwell (Veronica persica), sugar beet (Beta vulgaris), velvetleaf (Abutilon theophrasti), wheat (Triticum aestivum), wild buckwheat (Polygonum convolvulus), and wild oat (Avena fatua). All plant species were planted one day before application of the compound for the preemergence portion-of this test. Plantings of these species were adjusted to produce plants of appropriate size for the post-emergence portion of the test. […] All plant species were grown using normal greenhouse practices. Visual evaluations of injury expressed on treated plants, when compared to untreated controls, were recorded approximately fourteen to twenty one days after application of the test compound. […] A dash (-) response means no test result.
# [12] = test system: lambsquarters; assay: as above; type: in vivo, Chenopodium album; conditions: POSTEMERGENCE; for Plant response rating Lambsquarters: 0 to 100 scale
# Text: as §2
# [13] = test system: pigweed; assay: as above; type: in vivo, Amaranthusretroflexus; conditions: POSTEMERGENCE; for Plant response rating Pigweed: 0 to 100 scale
# Text: as §2
# [14] = test system: velvetleaf; assay: as above; type: in vivo, Abutilon theophrasti; conditions: POSTEMERGENCE; for Plant response rating, Velvetleaf: 0 to 100 scale
# Text: as §2
# [15] = test system: wheat; assay: as above; type: in vivo, Triticum aestivum; conditions: POSTEMERGENCE; for Plant response rating, Wheat: 0 to 100 scale
# Text: as §2
# [16] = test system: wild buckwheat; assay: as above; type: in vivo, Polygonum convolvulus; conditions: POSTEMERGENCE; for Plant response rating, Wild buckwheat: 0 to 100 scale
# Text: as §2
# [17] = test system: duck salad; assay: Test C flood test plant response rating 0 to 100; type: in vivo, Heteranthera limosa; conditions: for Plant response rating Duck salad: flood test species listed under POSTEMERGENCE, 0 to 100 scale
# Text: as §2
# [18] = test system: barnyardgrass; assay: Test C flood test plant response rating 0 to 100; type: in vivo, Echinochloa crus-galli; conditions: for Plant response rating, Barnyardgrass: flood test species listed under POSTEMERGENCE, 0 to 100 scale
# Text: as §2
# [19] = POSTEMERGENCE section, flood test, Rate 4 g/ha
# [20] = Rate 16 g/ha, under POSTEMERGENCE head (flood test species)
structure (smiles),measurement,setting,value
C#CC(C)N1C(=O)COc2cc(F)c(-c3nn4c(c3Cl)CCCC4)cc21 (stereo not shown) [Compound 50],"Plant response rating, Blackgrass","[1]; POSTEMERGENCE, Rate 10 g/ha",6
same,"Plant response rating, Blackgrass","[1]; POSTEMERGENCE, Rate 50 g/ha",6
same,"Plant response rating, Blackgrass","[1]; PREEMERGENCE, Rate 10 g/ha",4
same,"Plant response rating, Blackgrass","[1]; PREEMERGENCE, Rate 50 g/ha",6
same,"Plant response rating, Corn","[2]; POSTEMERGENCE, Rate 10 g/ha",3
same,"Plant response rating, Corn","[2]; POSTEMERGENCE, Rate 50 g/ha",4
same,"Plant response rating, Corn","[2]; PREEMERGENCE, Rate 50 g/ha",0
same,"Plant response rating, Cotton","[3]; POSTEMERGENCE, Rate 10 g/ha",9
same,"Plant response rating, Cotton","[3]; POSTEMERGENCE, Rate 50 g/ha",10
same,"Plant response rating, Cotton","[3]; PREEMERGENCE, Rate 10 g/ha",0
same,"Plant response rating, Cotton","[3]; PREEMERGENCE, Rate 50 g/ha",0
same,"Plant response rating, Crabgrass","[4]; POSTEMERGENCE, Rate 10 g/ha",3
same,"Plant response rating, Crabgrass","[4]; POSTEMERGENCE, Rate 50 g/ha",4
same,"Plant response rating, Crabgrass","[4]; PREEMERGENCE, Rate 10 g/ha",0
same,"Plant response rating, Crabgrass","[4]; PREEMERGENCE, Rate 50 g/ha",0
same,"Plant response rating, Rice","[5]; POSTEMERGENCE, Rate 10 g/ha",6
same,"Plant response rating, Rice","[5]; POSTEMERGENCE, Rate 50 g/ha",4
same,"Plant response rating, Rice","[5]; PREEMERGENCE, Rate 50 g/ha",2
same,"Plant response rating, Sorghum","[6]; POSTEMERGENCE, Rate 10 g/ha",4
same,"Plant response rating, Sorghum","[6]; POSTEMERGENCE, Rate 50 g/ha",3
same,"Plant response rating, Sorghum","[6]; PREEMERGENCE, Rate 50 g/ha",0
same,"Plant response rating, Sugar beet","[7]; POSTEMERGENCE, Rate 10 g/ha",10
same,"Plant response rating, Sugar beet","[7]; POSTEMERGENCE, Rate 50 g/ha",10
same,"Plant response rating, Sugar beet","[7]; PREEMERGENCE, Rate 50 g/ha",10
same,"Plant response rating, Wheat","[8]; POSTEMERGENCE, Rate 10 g/ha",4
same,"Plant response rating, Wheat","[8]; POSTEMERGENCE, Rate 50 g/ha",4
same,"Plant response rating, Wheat","[8]; PREEMERGENCE, Rate 50 g/ha",0
same,"Plant response rating, Wild oat","[9]; POSTEMERGENCE, Rate 10 g/ha",3
same,"Plant response rating, Wild oat","[9]; POSTEMERGENCE, Rate 50 g/ha",4
same,"Plant response rating, Wild oat","[9]; PREEMERGENCE, Rate 50 g/ha",3
same,"Plant response rating, Nutsedge","[10]; POSTEMERGENCE, Rate 10 g/ha",4
same,"Plant response rating, Nutsedge","[10]; POSTEMERGENCE, Rate 50 g/ha",5
same,"Plant response rating, Nutsedge","[10]; PREEMERGENCE, Rate 50 g/ha",0
same,"Plant response rating, Cotton",[11]; 62 g/ha,100
same,"Plant response rating, Cotton",[11]; 250 g/ha,100
same,"Plant response rating (0 to 100), Cotton",[11]; Rate 1 g/ha,70
same,"Plant response rating (0 to 100), Cotton",[11]; Rate 4 g/ha,100
same,"Plant response rating (0 to 100), Cotton",[11]; Rate 16 g/ha,100
same,Plant response rating Lambsquarters,[12]; 62 g/ha,100
same,Plant response rating Lambsquarters,[12]; 250 g/ha,100
same,"Plant response rating (0 to 100), Lambsquarters",[12]; Rate 4 g/ha,100
same,"Plant response rating (0 to 100), Lambsquarters",[12]; Rate 16 g/ha,100
same,Plant response rating Pigweed,[13]; 62 g/ha,100
same,Plant response rating Pigweed,[13]; 250 g/ha,100
same,"Plant response rating (0 to 100), Pigweed",[13]; Rate 1 g/ha,85
same,"Plant response rating (0 to 100), Pigweed",[13]; Rate 4 g/ha,100
same,"Plant response rating (0 to 100), Pigweed",[13]; Rate 16 g/ha,100
same,"Plant response rating, Velvetleaf",[14]; 62 g/ha,100
same,"Plant response rating, Velvetleaf",[14]; 250 g/ha,100
same,"Plant response rating (0 to 100), Velvetleaf",[14]; Rate 1 g/ha,70
same,"Plant response rating (0 to 100), Velvetleaf",[14]; Rate 4 g/ha,90
same,"Plant response rating (0 to 100), Velvetleaf",[14]; Rate 16 g/ha,100
same,"Plant response rating, Wheat",[15]; 62 g/ha,50
same,"Plant response rating, Wheat",[15]; 250 g/ha,60
same,"Plant response rating (0 to 100), Wheat",[15]; Rate 1 g/ha,0
same,"Plant response rating (0 to 100), Wheat",[15]; Rate 4 g/ha,20
same,"Plant response rating (0 to 100), Wheat",[15]; Rate 16 g/ha,30
same,"Plant response rating, Wild buckwheat",[16]; 62 g/ha,100
same,"Plant response rating, Wild buckwheat",[16]; 250 g/ha,100
same,"Plant response rating (0 to 100), Wild buckwheat",[16]; Rate 1 g/ha,0
same,"Plant response rating (0 to 100), Wild buckwheat",[16]; Rate 4 g/ha,20
same,"Plant response rating (0 to 100), Wild buckwheat",[16]; Rate 16 g/ha,80
same,"Plant response rating (0 to 100), Duck salad",[17]; [19],0
same,"Plant response rating (0 to 100), Duck salad",[17]; [20],0
same,Plant response rating Duck salad,[17]; 62 g/ha,0
same,Plant response rating Duck salad,[17]; 250 g/ha,90
same,"Plant response rating (0 to 100), Barnyardgrass",[18]; [19],60
same,"Plant response rating (0 to 100), Barnyardgrass",[18]; [20],70
same,"Plant response rating, Barnyardgrass",[18]; 62 g/ha,95
same,"Plant response rating, Barnyardgrass",[18]; 250 g/ha,100
